Assay [1] relates to NLRP3 inflammasome in LPS + ATP-activated JAWSII cells. Kind of assay: NLRP3 inflammasome-mediated IL-1β secretion. The format is cell-based, murine.
Assay [2] deals with ATP-activated LPS-primed J774A.1 macrophages. The assay can be described thus: PKC-α and AKT phosphorylation by Western blot. The format is cell-based, murine.
Procedure: Cells were washed twice with ice-cold phosphate-buffered saline (PBS) and lysed on ice for 5 min with lysis buffer (20 mM Tris-HCl, pH 7.5, 150 mM NaCl, 1 mM Na 2EDTA, 1 mM EGTA, 1% Triton X-100, 2.5 mM sodium pyrophosphate, 1 mM beta-glycerophosphate, 1 mM Na 3VO4, 1 µg/ml of leupeptin, 1 mM PMSF, protease inhibitor cocktail). The lysate was then centrifuged at 12,000 x g at 4 °C for 10 min and the pellet discarded. […]
In (C), LPS-primed J774A.1 macrophages (1 × 10^6/ml; 1 ml) were incubated for 30 min with 20 µM compound 1h or DMSO (vehicle) followed by ATP (5 mM) stimulation for 0-60 min, then phosphorylation of PKC-α was analyzed by Western blotting and expressed as the fold increase measured as the intensity of the PKC-α band divided by that of the actin band normalized to the corresponding value for DMSO at 0 minutes.
The test system is the same in assay [3]. The assay can be described thus: Intracellular ROS production (DCF fluorescence), ATP-induced. The format is cell-based, murine.
Procedure: Intracellular ROS production was measured by detecting the fluorescence intensity of the 2’, 7’-dichlorofluorescein, the oxidation product of 2’, 7’-dichlorofluorescein diacetate (Molecular Probes, Eugene, OR). […] In another, J774A.1 macrophages (5 × 10^5/ml; 0.1 ml) were incubated with LPS (1 µg/ml) for 6 h, then vehicle, compound 1h (20 µM), or DPI (25 µM) was added for 30 min. 2’, 7’-dichlorofluorescein diacetate (2 µM) was then added for 30 min before incubation with ATP (5 mM) for the indicated time; while, in another, the order of addition of compound1h/DPI and LPS was reversed. The fluorescence intensity of 2’, 7’-dichlorofluorescein was detected at an excitation wavelength of 485 nm and an emission wavelength of 530 nm on a microplate absorbance reader (Bio-Rad Laboratories, Inc).
In (A), J774A.1 macrophages (1 × 10^6/ml; 1 ml) were incubated with LPS (1 µg/ml) for 6 h, then with compound 1h (20 µM), the NADPH oxidase inhibitor DPI (25 µM), or DMSO (vehicle) for 30 min in the continued presence of LPS, then 2’,7’-dichlorofluorescein diacetate (2 µM) was added for 30 min, followed by ATP (5 mM) for the indicated time, then ROS levels were determined by measuring the mean fluorescence intensity (MFI) of the fluorophore carboxyl-DCF and expressing this value relative to that at time zero. In (B), J774A.1 macrophages (1 × 10^6/ml; 1 ml) were incubated with compound 1h (20 µM), DPI (25 µM), or DMSO (vehicle) for 30 min, then LPS (1 µg/ml) was added for 6 h; the cells were then incubated with 2’,7’-dichlorofluorescein diacetate (2 µM) for 30 min, then with ATP (5 mM) for the indicated time and ROS levels were measured by detection of the fluorescence intensity of the fluorophore carboxyl-DCF and expressed relative to that at time zero.
The test system of assay [4] is NLRP3 inflammasome in LPS+ATP-activated peritoneal macrophages. The assay can be described thus: NLRP3 inflammasome-mediated IL-1β secretion (ELISA). It counts as cell-based, mouse. To be noted: compound 10-40 µM 30 min before LPS 5.5 h, then ATP 5 mM 30 min. As for the experimental part:
The effects of the test samples on IL-1β, TNF-α, and IL-6 production were measured by ELISA according to the manufacturer’s instructions. In brief, 50 µl of biotinylated antibody reagent and 50 µl of supernatant were added to a stripwell plate precoated with anti-mouse IL-1β, TNF-α, or IL-6 antibodies, which was then incubated at room temperature for 2 h. After washing the plate three times with washing buffer, 100 µl of diluted streptavidin-HRP concentrate was added to each well and the plate incubated at room temperature for 30 min. […] After addition of 100 µl of stop solution to each well, the absorbance at 450 nm of each well was measured on a microplate reader. […]
Figure 4 Effect of compound 1h on NLRP3 inflammasome activation in LPS+ATP-activated J774A.1 macrophages. (A) J774A.1 macrophages (1 × 10^6/ml; 1 ml) or (B) peritoneal macrophages (1 × 10^5/ml; 1 ml) were incubated with 10-40 µM compound 1h or DMSO for 30 min, then LPS (1 µg/ml) was added and incubation continued for 5.5 h, then the cells were stimulated with ATP (5 mM) for an additional 30 min, then IL-1β in the culture medium was measured by ELISA (A, upper panel; B) and levels of active caspase-1 (p10) (A, lower panel) measured by Western blotting. […]
On the technique in general: In an ELISA, binding on a coated surface is turned into a signal by an enzyme label.

Assay [5] has as its system LPS-activated RAW 264.7 macrophages. The assay can be described thus: iNOS and COX-2 expression by Western blot. The format is cell-based, murine. To be noted: 30 min pretreatment, LPS 24 h. As for the experimental part:
Cells were washed twice with ice-cold phosphate-buffered saline (PBS) and lysed on ice for 5 min with lysis buffer (20 mM Tris-HCl, pH 7.5, 150 mM NaCl, 1 mM Na 2EDTA, 1 mM EGTA, 1% Triton X-100, 2.5 mM sodium pyrophosphate, 1 mM beta-glycerophosphate, 1 mM Na 3VO4, 1 µg/ml of leupeptin, 1 mM PMSF, protease inhibitor cocktail). The lysate was then centrifuged at 12,000 x g at 4 °C for 10 min and the pellet discarded. Proteins in the supernatant were separated by SDS-PAGE and electrotransferred to a PVDF membrane (EMD Millipore Corporation), which was then blocked by incubation for 1 h at room temperature in blocking buffer [(5% nonfat milk in PBS containing 0.1% Tween 20 (PBST)], then incubated for 2 h at room temperature with the primary antibody diluted in blocking buffer. After three washes in PBST, the membrane was incubated for 1 h at room temperature with an appropriate HRP-conjugated secondary antibody diluted in blocking buffer and developed using an enhanced chemiluminescence Western blot detection system (EMD Millipore Corporation).
To investigate the inhibitory effect of compounds 1h, 1i, and 1n on the LPS-induced inflammatory response, NO levels in the supernatants of RAW 264.7 macrophages incubated with DMSO (vehicle) or compound 1h, 1i, or 1n for 30 min before, and during, incubation for 24 h with LPS (1 µg/ml) were measured by the Griess reaction. […] We next investigated their effect on the expression of iNOS, the NO producing enzyme, using Western blots.
Figure 2 Effect of polyenylpyrrole derivatives on the expression of inflammatory mediators in LPS-stimulated RAW 264.7 macrophages. In (A) and (C), the cells (5 × 10^5/ml; 1 ml) were incubated for 30 min with 2.5-40 µM compound 1h, 1i, or 1n or DMSO (vehicle), then LPS (1 µg/ml) was added and incubation continued for 24 h, then NO (A) or IL-6 or TNF-α (C) in the culture medium was assayed by the Griess reaction or ELISA, respectively. In (B), cells (5 × 10^5/ml; 1 ml) were pretreated for 30 min with 2.5-40 µM compound 1h or DMSO, then LPS (1 µg/ml) was added and incubation continued for 24 h, then expression of iNOS and COX-2 was measured by Western blotting. The fold increase is the intensity of the band of interest divided by that of the actin band normalized to the corresponding value for the 0 LPS/0 inhibitor control.
For orientation: In western blotting, separated proteins are transferred to a membrane and probed.

For the compound `O=c1cc(O)cc(/C=C/C=C/C=C/C=C/c2[nH]ccc2Cl)o1` [compound 1h], in assay [1], the “NLRP3 inflammasome-mediated IL-1β secretion” value is on record as “reduced NLRP3 inflammasome-mediated interleukin-1β (IL-1β) secretion”. For the same compound, the “ATP-induced PKC-α phosphorylation” value in assay [2] (LPS-primed J774A.1, 20 µM 30 min, ATP 5 mM 0-60 min) is “significant inhibition of ATP-induced PKC-α phosphorylation at 20-60 min”. Besides, in assay [2] (LPS-primed macrophages (data not shown)), the “ATP-induced AKT phosphorylation” value is listed as “did not reduce ATP-induced AKT phosphorylation”. Further, the “ATP-induced ROS production, compound added after LPS priming” value in assay [3] (J774A.1, LPS 6 h, then compound 1h 20 µM or DPI 25 µM 30 min, ATP 5 mM 0-40 min) is “slightly reduced ATP-induced ROS production at 40 min”. Further, the “ATP-induced ROS production, compound added 30 min before LPS priming” value in assay [3] (J774A.1, compound 1h 20 µM or DPI 25 µM 30 min, then LPS 6 h, then ATP 5 mM) was “significantly inhibited ATP-induced ROS production”. For the same compound, the IL-1β secretion result in assay [4] is “inhibited IL-1β secretion by primary peritoneal macrophages”. In assay [5] (0-40 µM), the COX-2 expression result is listed as “did not affect expression of COX-2” and the “LPS-induced iNOS expression” value is given as “reduced LPS-induced iNOS expression”. In addition, the “Concentration at which reduction of LPS-induced iNOS expression is significant” value in assay [5] (Western blot) lay within 5 to 40 µM.

(Values after PMC3792051, “Polyenylpyrrole Derivatives Inhibit NLRP3 Inflammasome Activation and Inflammatory Mediator Expression by Reducing Reactive Oxygen Species Production and Mitogen-Activated Protein Kinase Activation” (PLoS ONE, 2013).)
